# Laboratory results reported in publication PMC9820167, “Design and Synthesis of Conformationally Flexible Scaffold as Bitopic Ligands for Potent D3-Selective Antagonists” (International Journal of Molecular Sciences, 2022).
# Experiments:
# Experiment in all cases: PDSP binding screen
# Serotonin 5-HT1B = Serotonin 5-HT1B (Homo sapiens, UniProt P28222); conditions: for inhibition at 10 µM: read-out: Ki (nM) or % inhibition at 10 µM: 5-HT1B
# Serotonin 5-HT1D = Serotonin 5-HT1D (Homo sapiens, UniProt P28221)
# Serotonin 5-HT3 = molecular target: T1, Serotonin 5-HT3 (Homo sapiens, UniProt P46098)
# T1 sequence (P46098 24-478): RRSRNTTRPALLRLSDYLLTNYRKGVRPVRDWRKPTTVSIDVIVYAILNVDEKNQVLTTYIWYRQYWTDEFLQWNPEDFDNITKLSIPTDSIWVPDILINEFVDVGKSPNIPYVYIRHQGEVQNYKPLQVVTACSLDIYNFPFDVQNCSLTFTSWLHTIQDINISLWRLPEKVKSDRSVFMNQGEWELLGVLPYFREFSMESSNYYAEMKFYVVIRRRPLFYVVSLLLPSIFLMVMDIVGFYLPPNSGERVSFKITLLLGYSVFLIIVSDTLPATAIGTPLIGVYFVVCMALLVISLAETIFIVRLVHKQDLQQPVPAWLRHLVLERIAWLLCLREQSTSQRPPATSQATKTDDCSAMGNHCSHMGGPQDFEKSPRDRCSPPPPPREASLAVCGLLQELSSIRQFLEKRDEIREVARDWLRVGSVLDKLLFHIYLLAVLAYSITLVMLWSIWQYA
# Adrenergic alpha1A = molecular target: T2, Adrenergic alpha1A (Homo sapiens, UniProt P35348); conditions: for inhibition at 10 µM: read-out: Ki (nM) or % inhibition at 10 µM: alpha1A
# T2 sequence (P35348 1-466): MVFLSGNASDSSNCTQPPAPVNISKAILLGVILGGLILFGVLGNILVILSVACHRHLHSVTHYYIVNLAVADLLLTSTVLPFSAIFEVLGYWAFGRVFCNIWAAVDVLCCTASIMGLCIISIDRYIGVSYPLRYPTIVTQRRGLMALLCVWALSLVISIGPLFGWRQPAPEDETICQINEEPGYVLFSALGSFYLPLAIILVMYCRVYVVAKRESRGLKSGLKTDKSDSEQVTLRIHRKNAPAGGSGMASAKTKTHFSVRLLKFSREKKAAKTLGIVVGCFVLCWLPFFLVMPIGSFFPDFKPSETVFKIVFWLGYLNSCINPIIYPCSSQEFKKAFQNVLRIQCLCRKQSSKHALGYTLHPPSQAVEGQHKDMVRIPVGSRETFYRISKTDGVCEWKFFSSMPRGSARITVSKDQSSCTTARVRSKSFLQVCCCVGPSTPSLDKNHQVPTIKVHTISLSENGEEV
# Adrenergic alpha2B = molecular target: T3, Adrenergic alpha2B (Homo sapiens, UniProt P18089)
# T3 sequence (P18089 1-450): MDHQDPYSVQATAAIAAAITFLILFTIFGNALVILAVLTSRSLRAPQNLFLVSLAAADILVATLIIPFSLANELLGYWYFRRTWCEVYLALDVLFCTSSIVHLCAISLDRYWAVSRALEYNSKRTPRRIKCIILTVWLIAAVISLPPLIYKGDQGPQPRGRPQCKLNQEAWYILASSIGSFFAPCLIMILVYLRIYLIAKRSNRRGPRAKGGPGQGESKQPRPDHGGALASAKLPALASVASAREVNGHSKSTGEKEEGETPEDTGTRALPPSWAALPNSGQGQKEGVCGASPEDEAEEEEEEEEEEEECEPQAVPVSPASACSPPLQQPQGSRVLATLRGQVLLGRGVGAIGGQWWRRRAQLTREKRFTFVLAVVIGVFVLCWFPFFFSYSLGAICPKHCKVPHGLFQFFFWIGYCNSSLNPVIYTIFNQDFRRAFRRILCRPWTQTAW
# Adrenergic alpha2C = molecular target: T4, Adrenergic alpha2C (Homo sapiens, UniProt P18825)
# T4 sequence (P18825 1-462): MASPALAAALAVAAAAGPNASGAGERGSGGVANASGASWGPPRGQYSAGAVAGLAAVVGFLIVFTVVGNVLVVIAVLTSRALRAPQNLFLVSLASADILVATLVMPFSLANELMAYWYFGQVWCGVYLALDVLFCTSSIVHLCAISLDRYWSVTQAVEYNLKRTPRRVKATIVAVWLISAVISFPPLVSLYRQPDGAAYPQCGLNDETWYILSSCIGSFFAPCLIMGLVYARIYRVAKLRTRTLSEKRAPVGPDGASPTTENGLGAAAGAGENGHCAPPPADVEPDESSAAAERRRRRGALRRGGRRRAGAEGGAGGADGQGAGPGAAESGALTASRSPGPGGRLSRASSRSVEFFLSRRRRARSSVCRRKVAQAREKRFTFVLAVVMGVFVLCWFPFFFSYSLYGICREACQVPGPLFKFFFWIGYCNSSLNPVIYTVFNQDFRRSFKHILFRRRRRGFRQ
# Adrenergic beta1 = Adrenergic beta1 (Homo sapiens, UniProt P08588); conditions: for inhibition at 10 µM: read-out: Ki (nM) or % inhibition at 10 µM: beta1
# Adrenergic beta3 = Adrenergic beta3 (Homo sapiens, UniProt P13945); conditions: for inhibition at 10 µM: read-out: Ki (nM) or % inhibition at 10 µM: beta3
# Dopamine D5 = Dopamine D5 (Homo sapiens, UniProt P21918); conditions: for inhibition at 10 µM: read-out: Ki (nM) or % inhibition at 10 µM: D5
# Histamine H1 = Histamine H1 (Homo sapiens, UniProt P35367)
# Histamine H2 = Histamine H2 (Homo sapiens, UniProt P25021); conditions: for inhibition at 10 µM: read-out: Ki (nM) or % inhibition at 10 µM: H2
# Histamine H4 = Histamine H4 (Homo sapiens, UniProt Q9H3N8); conditions: for inhibition at 10 µM: read-out: Ki (nM) or % inhibition at 10 µM: H4
# Muscarinic M1 = molecular target: T5, Muscarinic M1 (Homo sapiens, UniProt P11229); conditions: for inhibition at 10 µM: read-out: Ki (nM) or % inhibition at 10 µM: M1
# T5 sequence (P11229 1-460): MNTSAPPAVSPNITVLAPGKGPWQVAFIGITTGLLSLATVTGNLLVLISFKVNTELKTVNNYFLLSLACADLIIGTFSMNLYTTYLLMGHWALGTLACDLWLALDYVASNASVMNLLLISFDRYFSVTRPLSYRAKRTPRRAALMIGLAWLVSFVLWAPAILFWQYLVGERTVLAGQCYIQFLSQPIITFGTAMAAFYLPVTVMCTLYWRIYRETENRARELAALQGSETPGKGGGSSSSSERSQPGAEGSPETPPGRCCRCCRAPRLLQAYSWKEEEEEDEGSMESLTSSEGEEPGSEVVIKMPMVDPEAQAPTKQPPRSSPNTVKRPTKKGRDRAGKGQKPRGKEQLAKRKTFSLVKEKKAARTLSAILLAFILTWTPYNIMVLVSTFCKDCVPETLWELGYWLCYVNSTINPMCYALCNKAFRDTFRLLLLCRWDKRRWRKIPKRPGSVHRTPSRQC
# Sequence of Histamine H1 (P35367 whole entry): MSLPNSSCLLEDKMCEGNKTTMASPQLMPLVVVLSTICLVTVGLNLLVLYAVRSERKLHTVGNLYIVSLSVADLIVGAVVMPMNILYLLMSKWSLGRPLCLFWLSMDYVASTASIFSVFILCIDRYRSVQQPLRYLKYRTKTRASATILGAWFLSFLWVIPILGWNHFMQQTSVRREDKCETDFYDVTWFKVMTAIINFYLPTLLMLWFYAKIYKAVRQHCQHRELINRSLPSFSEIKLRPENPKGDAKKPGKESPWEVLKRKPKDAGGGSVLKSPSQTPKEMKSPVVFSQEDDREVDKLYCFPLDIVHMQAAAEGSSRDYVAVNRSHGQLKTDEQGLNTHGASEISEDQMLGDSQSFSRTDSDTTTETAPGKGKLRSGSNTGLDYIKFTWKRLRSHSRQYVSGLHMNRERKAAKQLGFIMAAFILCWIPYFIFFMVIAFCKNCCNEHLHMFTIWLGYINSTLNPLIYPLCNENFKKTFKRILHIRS
# Sequence of Dopamine D5 (P21918 whole entry): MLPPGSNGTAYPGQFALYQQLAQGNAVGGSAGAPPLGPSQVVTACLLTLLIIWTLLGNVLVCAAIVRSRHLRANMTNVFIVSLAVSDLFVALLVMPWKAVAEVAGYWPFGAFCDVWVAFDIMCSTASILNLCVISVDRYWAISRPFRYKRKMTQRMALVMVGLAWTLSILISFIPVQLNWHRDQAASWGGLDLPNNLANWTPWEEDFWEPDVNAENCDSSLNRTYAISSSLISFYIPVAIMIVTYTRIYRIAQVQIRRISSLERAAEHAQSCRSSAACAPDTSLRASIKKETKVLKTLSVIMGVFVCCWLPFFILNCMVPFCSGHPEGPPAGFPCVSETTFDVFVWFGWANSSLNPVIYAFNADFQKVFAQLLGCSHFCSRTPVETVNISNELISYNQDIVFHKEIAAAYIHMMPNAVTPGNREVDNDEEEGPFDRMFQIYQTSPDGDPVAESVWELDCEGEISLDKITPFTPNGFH
# Sequence of Adrenergic beta1 (P08588 whole entry): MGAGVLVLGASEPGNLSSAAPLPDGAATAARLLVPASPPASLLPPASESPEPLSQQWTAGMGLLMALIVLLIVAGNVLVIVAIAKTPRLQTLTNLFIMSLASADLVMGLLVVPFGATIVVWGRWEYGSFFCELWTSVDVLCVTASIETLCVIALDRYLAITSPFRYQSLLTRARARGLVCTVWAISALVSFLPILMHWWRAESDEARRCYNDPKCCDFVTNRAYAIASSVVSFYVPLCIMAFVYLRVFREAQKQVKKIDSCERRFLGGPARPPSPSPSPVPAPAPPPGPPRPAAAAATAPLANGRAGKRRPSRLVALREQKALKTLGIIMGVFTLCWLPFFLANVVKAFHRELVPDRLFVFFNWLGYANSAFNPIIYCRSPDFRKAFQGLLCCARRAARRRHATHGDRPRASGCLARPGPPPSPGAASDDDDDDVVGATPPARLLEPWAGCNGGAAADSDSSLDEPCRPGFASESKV
# Sequence of Histamine H4 (Q9H3N8 whole entry): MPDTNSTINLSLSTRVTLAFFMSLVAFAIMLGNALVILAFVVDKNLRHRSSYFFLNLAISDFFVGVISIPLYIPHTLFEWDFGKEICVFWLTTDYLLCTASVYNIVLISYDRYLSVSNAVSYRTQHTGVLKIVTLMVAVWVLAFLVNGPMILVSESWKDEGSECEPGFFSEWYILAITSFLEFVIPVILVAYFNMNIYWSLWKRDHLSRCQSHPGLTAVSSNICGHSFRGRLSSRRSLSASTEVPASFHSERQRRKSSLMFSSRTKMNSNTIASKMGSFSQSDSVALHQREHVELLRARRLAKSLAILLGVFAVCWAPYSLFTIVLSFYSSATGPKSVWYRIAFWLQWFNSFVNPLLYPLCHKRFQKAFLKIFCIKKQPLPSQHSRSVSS
# Sequence of Serotonin 5-HT1D (P28221 whole entry): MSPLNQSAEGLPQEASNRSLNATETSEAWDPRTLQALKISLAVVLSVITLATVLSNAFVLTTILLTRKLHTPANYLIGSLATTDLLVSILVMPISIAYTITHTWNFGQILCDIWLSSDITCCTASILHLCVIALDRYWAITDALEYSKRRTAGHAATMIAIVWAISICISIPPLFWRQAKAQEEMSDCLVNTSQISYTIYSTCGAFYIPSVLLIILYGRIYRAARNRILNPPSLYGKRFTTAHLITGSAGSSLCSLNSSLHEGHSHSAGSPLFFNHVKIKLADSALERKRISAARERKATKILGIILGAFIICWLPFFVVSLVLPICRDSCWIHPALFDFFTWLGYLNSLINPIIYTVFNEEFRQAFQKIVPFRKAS
# Sequence of Adrenergic beta3 (P13945 whole entry): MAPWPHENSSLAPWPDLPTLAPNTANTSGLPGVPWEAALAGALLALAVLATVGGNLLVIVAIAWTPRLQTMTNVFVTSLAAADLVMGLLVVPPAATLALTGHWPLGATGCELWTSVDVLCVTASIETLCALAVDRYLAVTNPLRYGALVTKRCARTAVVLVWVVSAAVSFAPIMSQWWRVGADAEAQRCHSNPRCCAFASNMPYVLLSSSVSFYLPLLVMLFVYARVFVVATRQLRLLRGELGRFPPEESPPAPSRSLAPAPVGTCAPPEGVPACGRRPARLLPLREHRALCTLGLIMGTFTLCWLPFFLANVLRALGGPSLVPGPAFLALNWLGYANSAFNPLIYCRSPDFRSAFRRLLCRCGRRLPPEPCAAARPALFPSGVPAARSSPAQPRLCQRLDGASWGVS
# Sequence of Histamine H2 (P25021 whole entry): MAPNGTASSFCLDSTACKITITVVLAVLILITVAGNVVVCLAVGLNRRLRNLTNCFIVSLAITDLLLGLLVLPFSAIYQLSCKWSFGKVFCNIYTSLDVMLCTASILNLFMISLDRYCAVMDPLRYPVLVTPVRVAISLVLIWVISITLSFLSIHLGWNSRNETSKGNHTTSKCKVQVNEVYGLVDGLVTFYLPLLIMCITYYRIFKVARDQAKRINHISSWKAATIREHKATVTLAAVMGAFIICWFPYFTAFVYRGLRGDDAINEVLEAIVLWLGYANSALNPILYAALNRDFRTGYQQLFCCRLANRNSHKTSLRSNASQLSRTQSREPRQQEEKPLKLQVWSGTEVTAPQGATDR
# Sequence of Serotonin 5-HT1B (P28222 whole entry): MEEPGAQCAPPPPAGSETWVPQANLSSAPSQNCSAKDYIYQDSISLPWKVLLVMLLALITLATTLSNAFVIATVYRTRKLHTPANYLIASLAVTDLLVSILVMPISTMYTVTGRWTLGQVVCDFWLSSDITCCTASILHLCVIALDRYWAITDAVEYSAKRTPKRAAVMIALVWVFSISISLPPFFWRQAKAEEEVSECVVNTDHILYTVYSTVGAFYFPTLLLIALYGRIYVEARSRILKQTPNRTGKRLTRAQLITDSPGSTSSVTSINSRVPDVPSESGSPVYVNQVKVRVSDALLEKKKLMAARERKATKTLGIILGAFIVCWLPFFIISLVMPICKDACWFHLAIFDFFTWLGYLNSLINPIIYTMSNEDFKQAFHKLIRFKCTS
SMILES,Ki (Serotonin 5-HT1B) [nM],Ki (Serotonin 5-HT1D) [nM],Ki (Serotonin 5-HT3) [nM],Ki (Adrenergic alpha2B) [nM],Ki (Adrenergic alpha2C) [nM],Ki (Adrenergic beta1) [nM],Ki (Adrenergic beta3) [nM],inhibition at 10 µM (Dopamine D5) [%],Ki (Histamine H1) [nM],Ki (Histamine H2) [nM],inhibition at 10 µM (Muscarinic M1) [%],inhibition at 10 µM (Serotonin 5-HT1B) [%],inhibition at 10 µM (Adrenergic alpha1A) [%],inhibition at 10 µM (Adrenergic beta1) [%],inhibition at 10 µM (Histamine H2) [%],inhibition at 10 µM (Histamine H4) [%],Ki (Dopamine D5) [nM],Ki (Muscarinic M1) [nM],further results
"CCCN(CCCNC(=O)c1ccc(-c2cccs2)cc1)CCNC(=O)c1cc(Br)cc(OC)c1OC [20a, 5-Bromo-2,3-dimethoxy-N-(2-(propyl(3-(4-(thiophen-2-yl)benzamido)propyl)amino)ethyl)benzamide]",1050,449,103,672,113,3710,1390,< 50,1360,1650,< 50,–,–,–,–,–,–,–,Ki (Adrenergic alpha1A): 2210 nM; Ki (Histamine H4): 3460 nM
"CCN(CCCNC(=O)c1ccsc1)CCNC(=O)c1cc(Br)cc(OC)c1OC [21i, N-(3-((2-(5-Bromo-2,3-dimethoxybenzamido)ethyl)(ethyl)amino)propyl)thiophen-e-3-carboxamide]",–,3140,29,2950,1290,–,> 10000,< 50,84,–,< 50,< 50,< 50,< 50,< 50,< 50,–,–,–
"CCN(CCCNC(=O)c1ccc(-c2cccs2)cc1)CCNC(=O)c1cc(Br)cc(OC)c1OC [9a, 5-Bromo-N-(2-(ethyl(3-(4-(thiophen-2-yl)benzamido)propyl)amino)ethyl)-2,3-dimethoxybenzamide]",905,1010,195,235,313,5900,1500,–,1490,2610,–,–,< 50,–,–,–,1470,2350,Ki (Histamine H4): 6420 nM
"CCN(CCCNC(=O)c1cc2ccccc2[nH]1)CCNC(=O)c1cc(Br)cc(OC)c1OC [21d, N-(3-((2-(5-Bromo-2,3-dimethoxybenzamido)ethyl)(ethyl)amino)propyl)-1H-indole-2-carboxamide]",–,1660,92,386,532,–,–,< 50,0.95,–,–,< 50,< 50,< 50,< 50,< 50,–,> 10000,inhibition at 10 µM (Adrenergic beta3): < 50%
"CCN(CCCNC(=O)c1ccc(-c2ccncc2)cc1)CCNC(=O)c1cc(Br)cc(OC)c1OC [21c, 5-Bromo-N-(2-(ethyl(3-(4-(pyridin-4-yl)benzamido)propyl)amino)ethyl)-2,3-dimethoxybenzamide]",–,1150,58,909,524,–,–,–,591,–,–,< 50,< 50,< 50,< 50,< 50,> 10000,3390,inhibition at 10 µM (Adrenergic beta3): < 50%
"CCN(CCCNC(=O)c1cc2ccccc2n1C)CCNC(=O)c1cc(Br)cc(OC)c1OC [21j, N-(3-((2-(5-Bromo-2,3-dimethoxybenzamido)ethyl)(ethyl)amino)propyl)-1-methyl-1H-indole-2-carboxamide]",–,1930,246,646,183,–,4360,< 50,1470,3680,< 50,< 50,< 50,< 50,–,< 50,–,–,–
"CCN(CCCNC(=O)c1ccc(-c2ccsc2)cc1)CCNC(=O)c1cc(Br)cc(OC)c1OC [21g, 5-Bromo-N-(2-(ethyl(3-(4-(thiophen-3-yl)benzamido)propyl)amino)ethyl)-2,3-dimethoxybenzamide]",1060,1820,195,571,78,1890,2960,–,102,2480,–,–,–,–,–,< 50,8690,3430,Ki (Adrenergic alpha1A): 2110 nM
"CCN(CCCNC(=O)c1cn2ccccc2n1)CCNC(=O)c1cc(Br)cc(OC)c1OC [21e, N-(3-((2-(5-Bromo-2,3-dimethoxybenzamido)ethyl)(ethyl)amino)propyl)imidazo[1,2-a]pyridine-2-carboxamide]",–,–,148,2830,1760,6520,5560,< 50,675,–,< 50,< 50,< 50,–,< 50,< 50,–,–,inhibition at 10 µM (Serotonin 5-HT1D; read-out: Ki (nM) or % inhibition at 10 µM: 5-HT1D): < 50%
"CCN(CCCNC(=O)c1ccc2ccccc2c1)CCNC(=O)c1cc(Br)cc(OC)c1OC [21a, N-(3-((2-(5-Bromo-2,3-dimethoxybenzamido)ethyl)(ethyl)amino)propyl)-2-naphthamide]",–,1200,53,577,195,–,4530,< 50,1510,2790,< 50,< 50,< 50,< 50,–,< 50,–,–,–
